Where “and” joins values, the source holds several entries; their conditions need not be identical. Identical values can stand only once. Results filed as inconclusive are left out.
Test system: CD8F1 mice, subcutaneous mammary adenocarcinoma, T/C%
Test: NCI In Vivo Anticancer Drug Screen. Data for tumor model Mammary Adenocarcinoma CD8F1 (subcutaneous) in CD8F1
Details: higher = larger tumour
Outline: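 Transplantable tumors were established in mice, animals were dosed with compound or vehicle, and survival or tumor size was then measured in both groups. The treated result was divided by the control result.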

[1] = endpoint: median tumor weight (est.), dose: 12.5 mg/kg/injection, schedule: Q07DX005 (ip), vehicle: Klucel (hydroxypropylcellulose) (HPC)
[2] = endpoint: median tumor weight (est.), dose: 25.0 mg/kg/injection, schedule: Q07DX005 (ip), vehicle: Klucel (hydroxypropylcellulose) (HPC)
[3] = endpoint: median tumor weight (est.), dose: 50.0 mg/kg/injection, schedule: Q07DX005 (ip), vehicle: Klucel (hydroxypropylcellulose) (HPC)
[4] = endpoint: median tumor weight (est.), dose: 100.0 mg/kg/injection, schedule: Q07DX005 (ip), vehicle: Klucel (hydroxypropylcellulose) (HPC)
[5] = endpoint: median tumor weight change, dose: 6.25 mg/kg/injection, schedule: Q01DX001 (ip), vehicle: saline with Tween-80
[6] = endpoint: median tumor weight change, dose: 12.5 mg/kg/injection, schedule: Q01DX001 (ip), vehicle: saline with Tween-80
[7] = endpoint: median tumor weight change, dose: 125.0 mg/kg/injection, schedule: Q01DX001 (ip), vehicle: saline with Tween-80
[8] = endpoint: median tumor weight change, dose: 250.0 mg/kg/injection, schedule: Q01DX001 (ip), vehicle: saline with Tween-80
[9] = endpoint: median tumor weight change, dose: 500.0 mg/kg/injection, schedule: Q01DX001 (ip), vehicle: saline with Tween-80
[10] = endpoint: median tumor weight (est.), dose: 200.0 mg/kg/injection, schedule: Q07DX005 (ip), vehicle: Klucel (hydroxypropylcellulose) (HPC)

SMILES: C=C(C)C12CC(C)C34OC5(CCCCCCCC(C)C6C(C)C(OC(=O)c7ccccc7)C(O)(C(O)C7(COC(=O)CCCCCCCCCCCCCCC)OC7C3C1O5)C64)O2 (stereo unspecified)
- T/C (endpoint: mean tumor weight, dose: 25.0 micrograms/kg/injection, schedule: Q01DX009 (ip), vehicle: Klucel (hydroxypropylcellulose) (HPC)): 82 % of control
- T/C (endpoint: mean tumor weight, dose: 50.0 micrograms/kg/injection, schedule: Q01DX009 (ip), vehicle: Klucel (hydroxypropylcellulose) (HPC)): 150 % of control
- T/C (endpoint: mean tumor weight, dose: 100.0 micrograms/kg/injection, schedule: Q01DX009 (ip), vehicle: Klucel (hydroxypropylcellulose) (HPC)): 114 % of control
- T/C (endpoint: mean tumor weight, dose: 200.0 micrograms/kg/injection, schedule: Q01DX009 (ip), vehicle: Klucel (hydroxypropylcellulose) (HPC)): 151 % of control

SMILES: C[N+](C)(C)c1cc2c(nn1)Nc1ccccc1S2
- T/C [1]: 86 % of control
- T/C [2]: 106 % of control
- T/C [3]: 107 % of control
- T/C [4]: 116 % of control

SMILES: NCCCNCCSP(=O)(O)O
- T/C (endpoint: median tumor weight (est.), dose: 25.0 mg/kg/injection, schedule: Q07DX005 (ip), vehicle: saline with Tween-80): 39 % of control
- T/C (endpoint: median tumor weight (est.), dose: 50.0 mg/kg/injection, schedule: Q07DX005 (ip), vehicle: saline with Tween-80): 33 % of control
- T/C (endpoint: median tumor weight (est.), dose: 100.0 mg/kg/injection, schedule: Q07DX005 (ip), vehicle: saline with Tween-80): 50 % of control
- T/C (endpoint: median tumor weight (est.), dose: 200.0 mg/kg/injection, schedule: Q07DX005 (ip), vehicle: saline with Tween-80): 28 % of control
- T/C (endpoint: median tumor weight (est.), dose: 400.0 mg/kg/injection, schedule: Q07DX005 (ip), vehicle: saline with Tween-80): 42 % of control

SMILES: O=C1N[C@@H]2C(=C[C@H](O)[C@@H](O)[C@H]2O)c2cc3c(c(O)c21)OCO3
- T/C (endpoint: median tumor weight change, dose: 3.12 mg/kg/injection, schedule: Q01DX001 (ip), vehicle: saline with Tween-80): 75 % of control
- T/C [5]: 90 % of control
- T/C [6]: 60 % of control

SMILES: COC1(OC)C2C=CC1CC2
- T/C (endpoint: median tumor weight change, dose: 62.5 mg/kg/injection, schedule: Q01DX001 (ip), vehicle: saline with Tween-80): 94 % of control
- T/C [7]: 82 % of control
- T/C [8]: 107 % of control
- T/C [9]: 58 % of control

SMILES: C=C1C(C)C2C(Cc3ccccc3)NC(=O)C23C(OC(C)=O)C=CC(C)(O)C(=O)C(C)C/C=C/C3C1O (stereo unspecified)
- T/C (endpoint: median tumor weight (est.), dose: 0.62 mg/kg/injection, schedule: Q07DX005 (ip), vehicle: saline): 64 % of control
- T/C (endpoint: median tumor weight (est.), dose: 1.25 mg/kg/injection, schedule: Q07DX005 (ip), vehicle: saline): 61 % of control
- T/C (endpoint: median tumor weight (est.), dose: 2.5 mg/kg/injection, schedule: Q07DX005 (ip), vehicle: saline): 94 % of control
- T/C (endpoint: median tumor weight (est.), dose: 5.0 mg/kg/injection, schedule: Q07DX005 (ip), vehicle: saline): 59 % of control
- T/C (endpoint: median tumor weight (est.), dose: 10.0 mg/kg/injection, schedule: Q07DX005 (ip), vehicle: saline): 46 % of control

SMILES: COc1ccc2c(c1)CCC(c1ccccc1)=C2c1ccc(OCCN2CCCC2)cc1
- T/C (endpoint: median tumor weight (est.), dose: 6.25 mg/kg/injection, schedule: Q07DX005 (ip), vehicle: Klucel (hydroxypropylcellulose) (HPC)): 119 % of control
- T/C [1]: 99 % of control and 103 % of control
- T/C [2]: 92 % of control and 111 % of control
- T/C [3]: 77 % of control and 80 % of control
- T/C [4]: 75 % of control and 95 % of control

SMILES: COc1cc(C2c3cc4c(cc3C(O)C(CO)C2CO)OCO4)cc(OC)c1OC (stereo unspecified)
- T/C [7]: 85 % of control
- T/C [8]: 102 % of control
- T/C [9]: 77 % of control
- T/C (endpoint: median tumor weight change, dose: 1000.0 mg/kg/injection, schedule: Q01DX001 (ip), vehicle: saline with Tween-80): 95 % of control
- T/C (endpoint: median tumor weight change, dose: 2000.0 mg/kg/injection, schedule: Q01DX001 (ip), vehicle: saline with Tween-80): 50 % of control

SMILES: CC[C@]1(O)C[C@H]2CN(CCc3c([nH]c4ccccc34)[C@@](C(=O)OC)(c3cc4c(cc3OC)N(C=O)[C@H]3[C@@](O)(C(=O)OC)[C@H](OC(C)=O)[C@]5(CC)C=CCN6CC[C@]43[C@@H]65)C2)C1
- T/C (endpoint: mean tumor weight, dose: 0.07 mg/kg/injection, schedule: Q01DX009 (ip), vehicle: saline): 180 % of control
- T/C (endpoint: mean tumor weight, dose: 0.15 mg/kg/injection, schedule: Q01DX009 (ip), vehicle: saline): 123 % of control
- T/C (endpoint: mean tumor weight, dose: 0.3 mg/kg/injection, schedule: Q01DX009 (ip), vehicle: saline): 54 % of control
- T/C (endpoint: mean tumor weight, dose: 0.5 mg/kg/injection, schedule: Q07DX006 (ip), vehicle: saline): 49 % of control
- T/C (endpoint: mean tumor weight, dose: 1.0 mg/kg/injection, schedule: Q07DX006 (ip), vehicle: saline): 71 % of control
- T/C (endpoint: mean tumor weight, dose: 2.0 mg/kg/injection, schedule: Q07DX006 (ip), vehicle: saline): 12 % of control
- T/C (endpoint: median tumor weight (est.), dose: 0.13 mg/kg/injection, schedule: Q01DX005 (ip), vehicle: saline): 56 % of control
- T/C (endpoint: median tumor weight (est.), dose: 0.19 mg/kg/injection, schedule: Q01DX005 (ip), vehicle: saline): 73 % of control
- T/C (endpoint: median tumor weight (est.), dose: 0.25 mg/kg/injection, schedule: Q07DX005 (ip), vehicle: saline): 64 % of control and 73 % of control and 84 % of control
- T/C (endpoint: median tumor weight (est.), dose: 0.28 mg/kg/injection, schedule: Q01DX005 (ip), vehicle: saline): 105 % of control
- T/C (endpoint: median tumor weight (est.), dose: 0.5 mg/kg/injection, schedule: Q07DX005 (ip), vehicle: saline): 39 % of control and 43 % of control and 45 % of control
- T/C (endpoint: median tumor weight (est.), dose: 0.95 mg/kg/injection, schedule: Q07DX005 (ip), vehicle: saline): 29 % of control
- T/C (endpoint: median tumor weight (est.), dose: 1.0 mg/kg/injection, schedule: Q07DX005 (ip), vehicle: saline): 6 % of control
- T/C (endpoint: median tumor weight (est.), dose: 1.4 mg/kg/injection, schedule: Q04DX005 (ip), vehicle: saline): 6 % of control
- T/C (endpoint: median tumor weight (est.), dose: 1.4 mg/kg/injection, schedule: Q07DX005 (ip), vehicle: saline): 8 % of control
- T/C (endpoint: median tumor weight (est.), dose: 2.0 mg/kg/injection, schedule: Q07DX005 (ip), vehicle: saline): 1 % of control

SMILES: CC(C)C(N)C(=O)Nc1nncs1 (stereo unspecified)
- T/C (endpoint: median tumor weight change, dose: 125.0 mg/kg/injection, schedule: Q01DX001 (ip), vehicle: saline): 119 % of control
- T/C (endpoint: median tumor weight change, dose: 250.0 mg/kg/injection, schedule: Q01DX001 (ip), vehicle: saline): 171 % of control
- T/C (endpoint: median tumor weight change, dose: 500.0 mg/kg/injection, schedule: Q01DX001 (ip), vehicle: saline): 82 % of control
- T/C (endpoint: median tumor weight change, dose: 1000.0 mg/kg/injection, schedule: Q01DX001 (ip), vehicle: saline): 81 % of control

SMILES: Cc1ccc2nc(-c3ccc4nc(-c5ccc(N=Nc6ccc(-c7nc8ccc(-c9nc%10ccc(C)c(S(=O)(=O)O)c%10s9)cc8s7)cc6)cc5)sc4c3)sc2c1S(=O)(=O)O
- T/C (endpoint: median tumor weight change, dose: 125.0 mg/kg/injection, schedule: Q01DX001 (ip), vehicle: suspension in saline): 94 % of control
- T/C (endpoint: median tumor weight change, dose: 250.0 mg/kg/injection, schedule: Q01DX001 (ip), vehicle: suspension in saline): 62 % of control

SMILES: COC1/C=C/C=C(/C)Cc2cc(O)c(Cl)c(c2)N(C)C(=O)CC(OC(=O)C(C)C)C2(C)OC2C(C)C2CC1(O)NC(=O)O2 (stereo unspecified)
- T/C (endpoint: median tumor weight change, dose: 0.62 mg/kg/injection, schedule: Q01DX001 (ip), vehicle: saline + alcohol): 49 % of control
- T/C (endpoint: median tumor weight change, dose: 1.25 mg/kg/injection, schedule: Q01DX001 (ip), vehicle: saline + alcohol): 34 % of control and 54 % of control
- T/C (endpoint: median tumor weight change, dose: 2.5 mg/kg/injection, schedule: Q01DX001 (ip), vehicle: saline + alcohol): 50 % of control and 70 % of control
- T/C (endpoint: median tumor weight change, dose: 5.0 mg/kg/injection, schedule: Q01DX001 (ip), vehicle: saline + alcohol): 54 % of control and 55 % of control
- T/C (endpoint: median tumor weight change, dose: 10.0 mg/kg/injection, schedule: Q01DX001 (ip), vehicle: saline + alcohol): 35 % of control and 60 % of control
- T/C (endpoint: median tumor weight change, dose: 20.0 mg/kg/injection, schedule: Q01DX001 (ip), vehicle: saline + alcohol): 48 % of control

SMILES: CCOC(=O)Nc1cc2c(c(N)n1)N=C(c1ccccc1)CN2
- T/C [5]: 86 % of control
- T/C [6]: 35 % of control

SMILES: CS(=O)(=O)[O-].CS(=O)(=O)[O-].NC1CCCCC1N.[Pt+4] (stereo unspecified)
- T/C (endpoint: median tumor weight (est.), dose: 0.63 mg/kg/injection, schedule: Q07DX005 (ip), vehicle: dextrose): 96 % of control
- T/C (endpoint: median tumor weight (est.), dose: 5.0 mg/kg/injection, schedule: Q07DX005 (ip), vehicle: dextrose): 4 % of control and 8 % of control

SMILES: C1OC1CO[C@@H]1CO[C@H]2[C@@H]1OC[C@H]2OCC1CO1 (stereo partly specified)
- T/C [1]: 44 % of control
- T/C [2]: 53 % of control
- T/C (endpoint: median tumor weight (est.), dose: 25.0 mg/kg/injection, schedule: Q07DX005 (ip), vehicle: suspension in saline): 108 % of control
- T/C [3]: 84 % of control
- T/C (endpoint: median tumor weight (est.), dose: 50.0 mg/kg/injection, schedule: Q07DX005 (ip), vehicle: suspension in saline): 64 % of control
- T/C [4]: 108 % of control
- T/C (endpoint: median tumor weight (est.), dose: 100.0 mg/kg/injection, schedule: Q07DX005 (ip), vehicle: suspension in saline): 48 % of control
- T/C [10]: 57 % of control
- T/C (endpoint: median tumor weight (est.), dose: 200.0 mg/kg/injection, schedule: Q07DX005 (ip), vehicle: suspension in saline): 51 % of control
- T/C (endpoint: median tumor weight (est.), dose: 400.0 mg/kg/injection, schedule: Q07DX005 (ip), vehicle: Klucel (hydroxypropylcellulose) (HPC)): 16 % of control
- T/C (endpoint: median tumor weight (est.), dose: 400.0 mg/kg/injection, schedule: Q07DX005 (ip), vehicle: suspension in saline): 9 % of control

SMILES: COc1cc(OC)c(OC)cc1/C=C\c1ccnc2ccccc12
- T/C [3]: 86 % of control
- T/C [4]: 55 % of control
- T/C [10]: 78 % of control
